One assay concerns the target T1, HiBit-BRM fusion protein (Homo sapiens, UniProt P51531).
T1 construct: expressed in transfected cells
Kind of assay: HiBiT-BRM cell-based degradation assay (Nano-Glo HiBiT Lytic Detection, 24 h). Particulars: HeLa cell line expressing HiBiT-BRM; for DC50: read-out: BRM HiBit Degradation IC50. The gist of the method:
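Stable HiBiT-BRM HeLa line; 24 h compound exposure, top final 30 μM, 3-fold, 10 pts in duplicate. Lytic HiBiT/LgBiT luminescence readout. % degradation vs DMSO (0%) and 2 μM known BRM/BRG1 degrader (100%).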
Background: The HiBiT peptide binds its large partner to form an active luciferase.

In assay [1] the target is T2, HiBit-BRG1 fusion protein (Homo sapiens, UniProt P51532).
T2 construct: expressed in transfected cells
Nature of the assay: HiBiT-BRG1 cell-based degradation assay (Nano-Glo HiBiT Lytic Detection, 24 h). Particulars: HeLa cell line expressing HiBit-BRG1 and LgBit; for Dmax: read-out: BRG1 HiBit Degradation Maximum (%); for DC50: read-out: BRMG1 HiBit Degradation IC50. The gist of the method:
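Stable HeLa line co-expressing HiBit-BRG1 and LgBit, 5000 cells/well, treated 24 h in a tissue culture incubator. Lysed with Nano-Glo HiBiT lytic reagent, luminescence read. % degradation normalized to DMSO (high control) and 2 μM reference BRM/BRG1 degrader (low control).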

T1 sequence (P51531 whole entry, the tested form may be a part): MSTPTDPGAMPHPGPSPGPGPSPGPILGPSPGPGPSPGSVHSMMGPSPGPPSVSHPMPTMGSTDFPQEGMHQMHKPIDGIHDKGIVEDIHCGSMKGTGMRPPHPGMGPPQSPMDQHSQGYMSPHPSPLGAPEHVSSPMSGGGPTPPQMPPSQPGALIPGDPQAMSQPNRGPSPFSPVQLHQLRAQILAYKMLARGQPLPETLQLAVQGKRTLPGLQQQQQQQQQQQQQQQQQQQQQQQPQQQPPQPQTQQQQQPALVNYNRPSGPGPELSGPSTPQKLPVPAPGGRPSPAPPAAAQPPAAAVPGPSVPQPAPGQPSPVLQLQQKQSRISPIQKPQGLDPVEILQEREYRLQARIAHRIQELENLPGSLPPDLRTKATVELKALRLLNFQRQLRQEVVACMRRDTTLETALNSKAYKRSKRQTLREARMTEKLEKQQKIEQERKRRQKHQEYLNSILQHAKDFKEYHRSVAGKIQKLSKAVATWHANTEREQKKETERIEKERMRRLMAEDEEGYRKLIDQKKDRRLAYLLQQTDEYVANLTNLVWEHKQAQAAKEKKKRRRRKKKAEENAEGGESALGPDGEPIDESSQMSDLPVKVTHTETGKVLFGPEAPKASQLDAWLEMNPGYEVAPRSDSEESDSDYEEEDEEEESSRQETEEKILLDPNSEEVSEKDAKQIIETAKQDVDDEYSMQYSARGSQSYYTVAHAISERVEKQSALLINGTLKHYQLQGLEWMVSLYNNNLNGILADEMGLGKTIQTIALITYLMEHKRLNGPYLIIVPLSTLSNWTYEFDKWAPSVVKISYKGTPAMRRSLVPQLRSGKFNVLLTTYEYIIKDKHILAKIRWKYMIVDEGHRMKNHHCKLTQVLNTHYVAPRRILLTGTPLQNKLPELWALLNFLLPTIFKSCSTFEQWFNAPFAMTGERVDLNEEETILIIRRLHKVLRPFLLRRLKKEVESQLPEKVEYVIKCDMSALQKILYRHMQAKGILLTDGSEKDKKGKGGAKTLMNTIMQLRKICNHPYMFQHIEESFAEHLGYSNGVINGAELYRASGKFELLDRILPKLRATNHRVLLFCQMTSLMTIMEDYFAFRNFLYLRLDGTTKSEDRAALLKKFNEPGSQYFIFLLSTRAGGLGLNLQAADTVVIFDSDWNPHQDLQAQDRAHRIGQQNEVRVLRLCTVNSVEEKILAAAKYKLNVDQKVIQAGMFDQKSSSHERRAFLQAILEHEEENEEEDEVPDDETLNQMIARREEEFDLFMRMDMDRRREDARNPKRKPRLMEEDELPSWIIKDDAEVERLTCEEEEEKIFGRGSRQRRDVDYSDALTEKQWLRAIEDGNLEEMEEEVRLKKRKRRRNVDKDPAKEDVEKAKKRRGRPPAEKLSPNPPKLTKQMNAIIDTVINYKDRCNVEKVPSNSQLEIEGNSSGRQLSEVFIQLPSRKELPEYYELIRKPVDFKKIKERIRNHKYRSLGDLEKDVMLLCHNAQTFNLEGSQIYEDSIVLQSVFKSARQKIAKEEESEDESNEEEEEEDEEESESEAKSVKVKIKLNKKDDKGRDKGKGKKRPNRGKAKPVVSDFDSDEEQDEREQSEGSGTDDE
T2 sequence (P51532 whole entry, the tested form may be a part): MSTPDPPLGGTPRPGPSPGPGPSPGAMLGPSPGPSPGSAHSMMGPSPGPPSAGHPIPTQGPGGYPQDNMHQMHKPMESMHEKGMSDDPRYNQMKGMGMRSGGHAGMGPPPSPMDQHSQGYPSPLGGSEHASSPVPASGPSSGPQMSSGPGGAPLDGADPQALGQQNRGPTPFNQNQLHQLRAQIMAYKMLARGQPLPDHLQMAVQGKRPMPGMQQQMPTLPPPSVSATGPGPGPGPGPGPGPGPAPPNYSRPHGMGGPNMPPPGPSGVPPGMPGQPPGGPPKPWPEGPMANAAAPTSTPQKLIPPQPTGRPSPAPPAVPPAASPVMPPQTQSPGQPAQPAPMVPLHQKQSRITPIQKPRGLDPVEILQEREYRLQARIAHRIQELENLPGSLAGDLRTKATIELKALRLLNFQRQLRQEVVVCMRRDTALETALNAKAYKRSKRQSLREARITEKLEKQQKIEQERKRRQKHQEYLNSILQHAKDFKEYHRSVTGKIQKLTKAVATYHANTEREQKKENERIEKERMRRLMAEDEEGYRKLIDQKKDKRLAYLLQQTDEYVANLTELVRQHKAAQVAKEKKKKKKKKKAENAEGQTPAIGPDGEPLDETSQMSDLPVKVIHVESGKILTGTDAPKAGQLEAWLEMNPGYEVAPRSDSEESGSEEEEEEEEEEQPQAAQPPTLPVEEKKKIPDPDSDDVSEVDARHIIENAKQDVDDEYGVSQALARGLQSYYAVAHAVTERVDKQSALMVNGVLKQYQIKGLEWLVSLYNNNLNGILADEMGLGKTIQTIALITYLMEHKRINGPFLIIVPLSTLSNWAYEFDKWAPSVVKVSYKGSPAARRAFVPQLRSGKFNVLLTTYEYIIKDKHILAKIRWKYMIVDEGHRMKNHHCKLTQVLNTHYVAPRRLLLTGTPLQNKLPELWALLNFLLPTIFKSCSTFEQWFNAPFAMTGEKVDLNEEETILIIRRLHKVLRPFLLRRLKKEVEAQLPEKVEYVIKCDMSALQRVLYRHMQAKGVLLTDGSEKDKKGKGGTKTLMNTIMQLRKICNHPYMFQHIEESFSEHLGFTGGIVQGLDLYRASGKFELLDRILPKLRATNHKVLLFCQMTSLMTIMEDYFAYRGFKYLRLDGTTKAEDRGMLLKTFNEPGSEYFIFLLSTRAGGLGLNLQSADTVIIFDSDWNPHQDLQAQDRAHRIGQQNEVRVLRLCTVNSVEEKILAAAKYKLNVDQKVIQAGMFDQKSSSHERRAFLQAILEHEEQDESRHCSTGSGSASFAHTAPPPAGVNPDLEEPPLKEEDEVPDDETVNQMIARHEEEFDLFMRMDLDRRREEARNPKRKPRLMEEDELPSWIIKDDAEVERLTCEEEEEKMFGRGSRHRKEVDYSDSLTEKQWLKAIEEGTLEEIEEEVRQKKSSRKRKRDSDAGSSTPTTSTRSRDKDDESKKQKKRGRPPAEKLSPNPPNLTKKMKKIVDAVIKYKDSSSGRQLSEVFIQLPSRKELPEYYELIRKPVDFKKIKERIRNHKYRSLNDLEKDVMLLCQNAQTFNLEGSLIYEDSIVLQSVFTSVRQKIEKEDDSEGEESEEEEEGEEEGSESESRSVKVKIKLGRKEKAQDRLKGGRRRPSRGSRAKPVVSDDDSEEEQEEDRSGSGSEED

As to `Cc1ncsc1-c1ccc(CNC(=O)[C@@H]2C[C@@H](O)CN2C(=O)[C@@H](NC(=O)CNC(=O)[C@H]2CCc3[nH]c4nnc(-c5ccccc5O)cc4c3C2)C(C)(C)C)cc1` (single isomer, unassigned) [Compound 191], the “BRM HiBit Degradation Maximum (%)” value on HiBit-BRM fusion protein was “C (“C” indicates maximum degradation < 50%)”. The Dmax in assay [1] was < 50%.

Regarding `Cc1ncsc1-c1ccc([C@H](C)NC(=O)C2C[C@@H](O)CN2C(=O)[C@@H](c2cc(OCCN3C[C@H]4C[C@H](c5[nH]c6nnc(-c7ccccc7O)cc6c5C)C[C@H]4C3)no2)C(C)C)cc1` (single isomer, unassigned) [Compound 112], at HiBit-BRM fusion protein, the “BRM HiBit Degradation Maximum (%)” value is listed as “A (“A” indicates maximum degradation ≥ 75%)” and the DC50 is < 10 nM. In addition, in assay [1], the Dmax was > 75% and the DC50 is > 10 nM.

On to `Cc1ncsc1-c1ccc([C@H](C)NC(=O)[C@@H]2C[C@@H](O)CN2C(=O)[C@@H](c2cc(N3C[C@H]4C[C@@H]3CN4C(=O)[C@@H]3CCc4[nH]c5nnc(-c6ccccc6O)cc5c4C3)no2)C(C)C)cc1` [Compound 101, (2S,4R)-4-hydroxy-1-((R)-2-(3-((1R,4R)-5-((R)-3-(2-hydroxyphenyl)-6,7,8,9-tetrahydro-5H-pyridazino[3,4-b]indole-6-carbonyl)-2,5-diazabicyclo[2.2.1]heptan-2-yl)isoxazol-5-yl)-3-methylbutanoyl)-N-((S)-1-(4-(4-methylthiazol-5-yl)phenyl)ethyl)pyrrolidine-2-carboxamide], for which, on HiBit-BRM fusion protein, the “BRM HiBit Degradation Maximum (%)” value is reported as “A (“A” indicates maximum degradation ≥ 75%)” and the DC50 was < 10 nM. Also, in assay [1], the Dmax is > 75% and the DC50 is > 10 nM.

With `Cc1ncsc1-c1ccc([C@H](C)NC(=O)[C@@H]2C[C@@H](O)CN2C(=O)[C@@H](c2cc(OCCNC3CC[C@]34C[C@@H](c3cc5cc(-c6ccccc6O)nnc5[nH]3)C4)no2)C(C)C)cc1` (mixture of isomers) [Compound 133, (2S,4R)-4-hydroxy-1-((R)-2-(3-(2-(((1S,4r,6R)-6-(3-(2-hydroxyphenyl)-7H-pyrrolo[2,3-c]pyridazin-6-yl)spiro[3.3]heptan-1-yl)amino)ethoxy)isoxazol-5-yl)-3-methylbutanoyl)-N-((S)-1-(4-(4-methylthiazol-5-yl)phenyl)ethyl)pyrrolidine-2-carboxamide], at HiBit-BRM fusion protein, the “BRM HiBit Degradation Maximum (%)” value was “A (“A” indicates maximum degradation ≥ 75%)” and the DC50 was > 10 nM. In assay [1], the Dmax is > 50% and the DC50 is > 100 nM.

For the molecule `Cc1ncsc1-c1ccc([C@H](C)NC(=O)[C@@H]2C[C@@H](O)CN2C(=O)[C@H](c2cc(C3CN(C(=O)[C@H]4CCc5[nH]c6nnc(-c7ccccc7O)cc6c5C4)C3)no2)C(C)C)cc1` (single isomer, unassigned) [Compound 153], at HiBit-BRM fusion protein, the “BRM HiBit Degradation Maximum (%)” value was “C (“C” indicates maximum degradation < 50%)”. Moreover, the Dmax in assay [1] was < 50%.

Turning to `Cc1ncsc1-c1ccc([C@H](C)NC(=O)[C@@H]2C[C@@H](O)CN2C(=O)[C@H](c2cc(OCCN3CC(c4cc5cc(-c6ccccc6O)nnc5[nH]4)C3)no2)C(C)C)cn1` (single isomer, unassigned) [Compound 218], the “BRM HiBit Degradation Maximum (%)” value at HiBit-BRM fusion protein is on record as “C (“C” indicates maximum degradation < 50%)”. In addition, the Dmax in assay [1] is < 50%.

In the case of `Cc1ncsc1-c1ccc([C@H](C)NC(=O)[C@@H]2C[C@@H](O)CN2C(=O)[C@@H](c2cc(OCCN3CCC(c4cc5cc(-c6ccccc6O)nnc5[nH]4)C3)no2)C(C)C)cc1` (mixture of isomers) [Compound 52, (2S,4R)-4-hydroxy-1-((2R)-2-(3-(2-(3-(3-(2-hydroxyphenyl)-7H-pyrrolo[2,3-c]pyridazin-6-yl)pyrrolidin-1-yl)ethoxy)isoxazol-5-yl)-3-methylbutanoyl)-N-((S)-1-(4-(4-methylthiazol-5-yl)phenyl)ethyl)pyrrolidine-2-carboxamide], at HiBit-BRM fusion protein, the “BRM HiBit Degradation Maximum (%)” value is on record as “A (“A” indicates maximum degradation ≥ 75%)” and the DC50 was > 10 nM. The Dmax in assay [1] was < 50%.

Take `Cc1ncsc1-c1ccc(CNC(=O)[C@@H]2C[C@@H](O)CN2C(=O)[C@@H](NC(=O)CCN(C)C23CC(c4cc5cc(-c6ccccc6O)nnc5[nH]4)(C2)C3)C(C)(C)C)cc1` (racemic) [Compound 293, (2S,4R)-4-hydroxy-1-[(2S)-2-[3-([3-[3-(2-hydroxyphenyl)-7H-pyrrolo[2,3-c]pyridazin-6-yl]bicyclo[1.1.1]pentan-1-yl](methyl)amino)propanamido]-3,3-dimethylbutanoyl]-N-[[4-(4-methyl-1,3-thiazol-5-yl)phenyl]methyl]pyrrolidine-2-carboxamide]: at HiBit-BRM fusion protein, the “BRM HiBit Degradation Maximum (%)” value is “A (“A” indicates maximum degradation ≥ 75%)” and the DC50 was > 100 nM. For the same molecule, in assay [1], the Dmax was > 50% and the DC50 was > 1000 nM.

For `Cc1ncsc1-c1ccc([C@H](C)NC(=O)[C@@H]2C[C@@H](O)CN2C(=O)[C@H](c2cc(N(C)CCN3CCc4[nH]c5nnc(-c6ccccc6O)cc5c4C3)no2)C(C)C)cc1` (racemic) [Compound 149, (2S,4R)-4-hydroxy-1-((S)-2-(3-((2-(3-(2-hydroxyphenyl)-5,7,8,9-tetrahydro-6H-pyrido[3′,4′:4,5]pyrrolo[2,3-c]pyridazin-6-yl)ethyl)(methyl)amino)isoxazol-5-yl)-3-methylbutanoyl)-N-((S)-1-(4-(4-methylthiazol-5-yl)phenyl)ethyl)pyrrolidine-2-carboxamide], at HiBit-BRM fusion protein, the “BRM HiBit Degradation Maximum (%)” value is “C (“C” indicates maximum degradation < 50%)”. In addition, the Dmax in assay [1] was < 50%.

On to `Cc1ncsc1-c1ccc([C@H](C)NC(=O)[C@@H]2C[C@@H](O)CN2C(=O)[C@@H](c2cc(N3CCN(C(=O)[C@@H]4CCc5[nH]c6nnc(-c7ccccc7O)cc6c5C4)CC3)no2)C(C)C)cc1` (single isomer, unassigned) [Compound 192], for which, at HiBit-BRM fusion protein, the “BRM HiBit Degradation Maximum (%)” value is recorded as “A (“A” indicates maximum degradation ≥ 75%)” and the DC50 is > 10 nM. In addition, the Dmax in assay [1] is < 50%.

On to `Cc1ncsc1-c1ccc([C@H](C)NC(=O)[C@@H]2C[C@@H](O)CN2C(=O)[C@@H](c2cc(OCCN(C)C(=O)c3cc4cc(-c5ccccc5O)nnc4[nH]3)no2)C(C)C)cc1` (racemic) [Compound 242, N-(2-((5-((R)-1-((2S,4R)-4-hydroxy-2-(((S)-1-(4-(4-methylthiazol-5-yl)phenyl)ethyl)carbamoyl)pyrrolidin-1-yl)-3-methyl-1-oxobutan-2-yl)isoxazol-3-yl)oxy)ethyl)-3-(2-hydroxyphenyl)-N-methyl-7H-pyrrolo[2,3-c]pyridazine-6-carboxamide], for which, on HiBit-BRM fusion protein, the “BRM HiBit Degradation Maximum (%)” value is “B (“B” indicates maximum degradation ≥ 50%)” and the DC50 is > 100 nM. In addition, the Dmax in assay [1] was < 50%.

As for `Cc1ncsc1-c1ccc(CNC(=O)[C@@H]2C[C@@H](O)CN2C(=O)[C@@H](NCCC(=O)N2CC(c3cc4cc(-c5ccccc5O)nnc4[nH]3)C2)C(C)(C)C)cc1` (racemic) [Compound 50, (2S,4R)-4-hydroxy-1-((S)-2-((3-(3-(3-(2-hydroxyphenyl)-7H-pyrrolo[2,3-c]pyridazin-6-yl)azetidin-1-yl)-3-oxopropyl)amino)-3,3-dimethylbutanoyl)-N-(4-(4-methylthiazol-5-yl)benzyl)pyrrolidine-2-carboxamide], the “BRM HiBit Degradation Maximum (%)” value at HiBit-BRM fusion protein is recorded as “C (“C” indicates maximum degradation < 50%)”. Moreover, the Dmax in assay [1] was < 50%.

As to `Cc1ncsc1-c1ccc([C@H](C)NC(=O)[C@@H]2C[C@@H](O)CN2C(=O)[C@H](c2cc(N3CCN(C(=O)c4cc5cc(-c6ccccc6O)nnc5[nH]4)CC3)no2)C(C)C)cc1` (racemic) [Compound 252, (2S,4R)-4-hydroxy-1-((S)-2-(3-(4-(3-(2-hydroxyphenyl)-7H-pyrrolo[2,3-c]pyridazine-6-carbonyl)piperazin-1-yl)isoxazol-5-yl)-3-methylbutanoyl)-N-((S)-1-(4-(4-methylthiazol-5-yl)phenyl)ethyl)pyrrolidine-2-carboxamide], the “BRM HiBit Degradation Maximum (%)” value at HiBit-BRM fusion protein is given as “C (“C” indicates maximum degradation < 50%)”. For the same molecule, the Dmax in assay [1] was < 50%.

As to `Cc1ncsc1-c1ccc([C@H](C)NC(=O)[C@@H]2C[C@@H](O)CN2C(=O)[C@@H](c2cc(OCCN3CCC4(CC3)CC(c3cc5cc(-c6ccccc6O)nnc5[nH]3)C4)no2)C(C)C)cc1` (racemic) [Compound 290, (2S,4R)-4-hydroxy-1-((R)-2-(3-(2-(2-(3-(2-hydroxyphenyl)-7H-pyrrolo[2,3-c]pyridazin-6-yl)-7-azaspiro[3.5]nonan-7-yl)ethoxy)isoxazol-5-yl)-3-methylbutanoyl)-N-((S)-1-(4-(4-methylthiazol-5-yl)phenyl)ethyl)pyrrolidine-2-carboxamide], at HiBit-BRM fusion protein, the “BRM HiBit Degradation Maximum (%)” value is “A (“A” indicates maximum degradation ≥ 75%)” and the DC50 is > 10 nM. In addition, in assay [1], the Dmax is > 50% and the DC50 is > 100 nM.

For the molecule `Cc1ncsc1-c1ccc([C@H](C)NC(=O)[C@@H]2C[C@@H](O)CN2C(=O)[C@@H](c2cc(OCCN3CCC[C@@H]3c3cc4cc(-c5ccccc5O)nnc4[nH]3)no2)C(C)C)cc1` (racemic) [Compound 261, (2S,4R)-4-hydroxy-1-((R)-2-(3-(2-((R)-2-(3-(2-hydroxyphenyl)-7H-pyrrolo[2,3-c]pyridazin-6-yl)pyrrolidin-1-yl)ethoxy)isoxazol-5-yl)-3-methylbutanoyl)-N-((S)-1-(4-(4-methylthiazol-5-yl)phenyl)ethyl)pyrrolidine-2-carboxamide], the “BRM HiBit Degradation Maximum (%)” value at HiBit-BRM fusion protein is “C (“C” indicates maximum degradation < 50%)”. Moreover, the Dmax in assay [1] is < 50%.

The values above are taken from patent US20240024488A1, “COMPOUNDS AND USES THEREOF” (Foghorn Therapeutics Inc., priority 2020, published 2024).
